Laboratory results taken from patent US8258097B2, “Amino acid derivatives” (Proximagen Ltd., priority 2007, dated 2012).

Test system: 6-OHDA-lesioned rats
Test: Assessment of rotational (locomotor) activity in 6-OHDA-lesioned rats
Type: in vivo, Male Wistar rats
Settings: p.o., with benserazide 10 mg/kg, 63.4 μmole/kg
Protocol: • Animals Male Wistar rats, 200-225 g on arrival, Harlan Ltd. • Housing Animals were housed in groups of 4 on a 12-h light-dark cycle with an environment of 50% humidity and temperature of 21±2° C. in accordance with Animals (Scientific Procedures) Act […] Home Office regulations. Rats had access to food and water ad libitum. • Licence All animals used in this study were treated in accordance with the UK 1986 Animals (Scientific Procedures Act). Procedure • Surgery Male Wistar rats were anaesthetized in an induction chamber using isofluorane (1-2% in 95% O2, 5% CO2 carrier gas), placed in a Kopf stereotaxic frame and anaesthesia maintained with 0.5-1.0% isofluorane. An incision was made in the scalp and a 0.8-mm-diameter hole made in the skull at coordinates AP: −2.6 mm, L: +2.0 mm (all co-ordinated measured from bregma). The neurotoxin 6-hydroxydopamine (6-OHDA) (8 μg free base in 4 μL of 0.9% saline containing 0.05% ascorbic acid) was injected into the left median forebrain bundle at a constant rate over 4 min (1 μl/min) using a 10-μL Hamilton syringe lowered to −8 mm below the dura. The needle remained in place for a further 4 min before being removed, and the wound cleaned and sutured. Carprofen (5 mg/kg subcutaneously) was administered for pain relief and a rehydration treatment of 5% glucose in 0.9% saline (up to 5 ml ip) was given prior to recovery from the anaesthetic. Behavioural Assessment Confirmation of the Lesion • At least 2 weeks following surgery, animals were examined for rotational behaviour (see below) in response to the administration of apomorphine hydrochloride (0.5 mg/kg s.c. in 0.9% saline containing 0.05% ascorbic acid) to evaluate the extent of the lesion. […]. Animals were placed in rotometers (Med Associates) for up to 30 min to measure basal activity. They were then treated with benserazide (10 mg/kg) concomitantly with test compound or L-DOPA (63.4 μmole/kg ip or po). Rotation behaviour was assessed for up to 6 hours after test drug/L-DOPA administration. Animals were typically treated with a series of compounds for comparative purposes. Each treatment was administered at least 1 day apart. Data Analysis • The number of rotations measured per 10 minutes over the 6 hour period was determined. Animals were considered active if they turned >10 turns per 10 minutes.

## CNC(=O)Oc1cc(C[C@H](NC(=O)[C@@H](N)Cc2ccc(O)c(O)c2)C(=O)OC)ccc1O.Cl [Example 8, (S)-2-(3,4-Dihydroxy-phenyl)-1-[(S)-2-(4-hydroxy-3-methylcarbamoyloxy-phenyl)-1-methoxycarbonyl-ethylcarbamoyl]-ethyl-ammonium chloride]
  AUC (locomotor activity): 928 (±161) rotations per 220 min
  locomotor activity compared to baseline: increased locomotor activity compared to baseline
  peak locomotor activity: 92 (±20) rotations per 10 min
Active = >10 turns per 10 minutes
  duration of locomotor activity: 142 (±7) min
